Assay results published in ChEMBL document CHEMBL1255447, “Efflux pumps, OprD porin, AmpC beta-lactamase, and multiresistance in Pseudomonas aeruginosa isolates from cystic fibrosis patients” (2010).
Converted amounts (≈) assume the structure as drawn.

Key:
[1] = system: Pseudomonas aeruginosa; test: Antimicrobial activity against Pseudomonas aeruginosa M1251 by Etest
[2] = system: Pseudomonas aeruginosa; test: Antimicrobial activity against Pseudomonas aeruginosa R70 Etest; type: functional
[3] = system: Pseudomonas aeruginosa; test: Antimicrobial activity against Pseudomonas aeruginosa R20 Etest; type: functional
[4] = system: Pseudomonas aeruginosa; test: Antimicrobial activity against Pseudomonas aeruginosa AHP Etest; type: functional
[5] = system: Pseudomonas aeruginosa; test: Antimicrobial activity against Pseudomonas aeruginosa Z799/61 by Etest; type: functional
[6] = system: Pseudomonas aeruginosa; test: Antimicrobial activity against Pseudomonas aeruginosa 1405-con D2 by Etest; type: functional
[7] = system: Pseudomonas aeruginosa; test: Antimicrobial activity against Pseudomonas aeruginosa isolate 1530c from fibrosis patient by Etest; type: functional
[8] = system: Pseudomonas aeruginosa; test: Antimicrobial activity against Pseudomonas aeruginosa isolate 1693c from fibrosis patient by Etest; type: functional
[9] = system: Pseudomonas aeruginosa; test: Antimicrobial activity against Pseudomonas aeruginosa isolate 17145c from fibrosis patient by Etest; type: functional
[10] = system: Pseudomonas aeruginosa; test: Antimicrobial activity against Pseudomonas aeruginosa isolate 1529c from fibrosis patient by Etest; type: functional
[11] = system: Pseudomonas aeruginosa; test: Antimicrobial activity against Pseudomonas aeruginosa isolate 14169c from fibrosis patient by Etest; type: functional
[12] = system: Pseudomonas aeruginosa; test: Antimicrobial activity against Pseudomonas aeruginosa isolate 1247c from fibrosis patient by Etest; type: functional
[13] = system: Pseudomonas aeruginosa; test: Antimicrobial activity against Pseudomonas aeruginosa isolate 1681c from fibrosis patient by Etest; type: functional
[14] = system: Pseudomonas aeruginosa; test: Antimicrobial activity against Pseudomonas aeruginosa isolate 1352c from fibrosis patient by Etest; type: functional
[15] = system: Pseudomonas aeruginosa; test: Antimicrobial activity against Pseudomonas aeruginosa isolate 1333c from fibrosis patient by Etest; type: functional
[16] = system: Pseudomonas aeruginosa; test: Antimicrobial activity against Pseudomonas aeruginosa isolate 1248c from fibrosis patient by Etest; type: functional
[17] = system: Pseudomonas aeruginosa; test: Antimicrobial activity against Pseudomonas aeruginosa isolate 15110c from fibrosis patient by Etest; type: functional
[18] = system: Pseudomonas aeruginosa; test: Antimicrobial activity against Pseudomonas aeruginosa isolate 12142c from fibrosis patient by Etest; type: functional
[19] = system: Pseudomonas aeruginosa; test: Antimicrobial activity against Pseudomonas aeruginosa isolate 1712c from fibrosis patient by Etest; type: functional
[20] = system: Pseudomonas aeruginosa; test: Antimicrobial activity against Pseudomonas aeruginosa isolate 1495c from fibrosis patient by Etest; type: functional
[21] = system: Pseudomonas aeruginosa; test: Antimicrobial activity against Pseudomonas aeruginosa isolate 1726 from fibrosis patient by Etest; type: functional
[22] = system: Pseudomonas aeruginosa; test: Antimicrobial activity against Pseudomonas aeruginosa isolate 15107 from fibrosis patient by Etest; type: functional
[23] = system: Pseudomonas aeruginosa; test: Antimicrobial activity against Pseudomonas aeruginosa isolate 16008 from fibrosis patient by Etest; type: functional
[24] = system: Pseudomonas aeruginosa; test: Antimicrobial activity against Pseudomonas aeruginosa isolate 13167 from fibrosis patient by Etest; type: functional
[25] = system: Pseudomonas aeruginosa; test: Antimicrobial activity against Pseudomonas aeruginosa isolate 1240 from fibrosis patient by Etest; type: functional
[26] = system: Pseudomonas aeruginosa; test: Antimicrobial activity against Pseudomonas aeruginosa isolate 3149 from fibrosis patient by Etest; type: functional
[27] = system: Pseudomonas aeruginosa; test: Antimicrobial activity against Pseudomonas aeruginosa isolate 12102 from fibrosis patient by Etest; type: functional
[28] = system: Pseudomonas aeruginosa; test: Antimicrobial activity against Pseudomonas aeruginosa isolate 1253 from fibrosis patient by Etest; type: functional
[29] = system: Pseudomonas aeruginosa; test: Antimicrobial activity against Pseudomonas aeruginosa isolate 1665 from fibrosis patient by Etest; type: functional
[30] = system: Pseudomonas aeruginosa; test: Antimicrobial activity against Pseudomonas aeruginosa isolate 17112 from fibrosis patient by Etest; type: functional
[31] = system: Pseudomonas aeruginosa; test: microbe, parasite or virus in culture; settings: 2779-con
Description: Antimicrobial activity against Pseudomonas aeruginosa 2779-con by Etest

[32] = system: Pseudomonas aeruginosa; test: microbe, parasite or virus in culture; settings: isolate 13120
Description: Antimicrobial activity against Pseudomonas aeruginosa isolate 13120 from fibrosis patient by Etest

Row | Compound | MIC [4] [µg/mL] | MIC [5] [µg/mL] | MIC [7] [µg/mL] | MIC [8] [µg/mL] | MIC [9] [µg/mL] | MIC [10] [µg/mL] | MIC [11] [µg/mL] | MIC [12] [µg/mL] | MIC [13] [µg/mL] | MIC [14] [µg/mL] | MIC [16] [µg/mL] | MIC [17] [µg/mL] | MIC [18] [µg/mL] | MIC [19] [µg/mL] | MIC [20] [µg/mL] | MIC [21] [µg/mL] | MIC [22] [µg/mL] | MIC [23] [µg/mL] | MIC [26] [µg/mL] | MIC [29] [µg/mL] | also measured
1 | C[C@@H](O)[C@H]1C(=O)N2C(C(=O)O)=C(SCCNC=N)C[C@H]12 [IMIPENEM ANHYDROUS] | 0.12 (≈ 0.401 µM) | 0.5 (≈ 1.67 µM) | 8 (≈ 26.7 µM) | 8 (≈ 26.7 µM) | 32 (≈ 107 µM) | 16 (≈ 53.4 µM) | 16 (≈ 53.4 µM) | 16 (≈ 53.4 µM) | 32 (≈ 107 µM) | > 32 | 16 (≈ 53.4 µM) | > 32 | 32 (≈ 107 µM) | 32 (≈ 107 µM) | > 32 | 4 (≈ 13.4 µM) | 8 (≈ 26.7 µM) | 64 (≈ 214 µM) | 32 (≈ 107 µM) | 64 (≈ 214 µM) | MIC [1]: 4 µg/mL (≈ 13.4 µM); MIC [2]: 16 µg/mL (≈ 53.4 µM); MIC [3]: 2 µg/mL (≈ 6.68 µM); MIC [6]: 16 µg/mL (≈ 53.4 µM); MIC [15]: 32 µg/mL (≈ 107 µM); MIC [24]: 4 µg/mL (≈ 13.4 µM); MIC [25]: 16 µg/mL (≈ 53.4 µM); MIC [27]: 32 µg/mL (≈ 107 µM); MIC [28]: > 32 µg/mL; MIC [30]: 128 µg/mL (≈ 428 µM); MIC [31]: 2 µg/mL (≈ 6.68 µM); MIC [32]: 16 µg/mL (≈ 53.4 µM)
2 | O=C(O)c1cn(C2CC2)c2cc(N3CCNCC3)c(F)cc2c1=O [CIPROFLOXACIN] | ≤ 0.12 | ≤ 0.12 | – | 1 (≈ 3.02 µM) | 4 (≈ 12.1 µM) | – | 1 (≈ 3.02 µM) | 4 (≈ 12.1 µM) | – | – | 4 (≈ 12.1 µM) | – | 4 (≈ 12.1 µM) | 4 (≈ 12.1 µM) | 4 (≈ 12.1 µM) | – | – | 4 (≈ 12.1 µM) | > 8 | 4 (≈ 12.1 µM) | MIC [3]: ≤ 0.12 µg/mL; MIC [31]: ≤ 0.12 µg/mL
3 | CC(C)(O/N=C(\C(=O)N[C@@H]1C(=O)N2C(C(=O)[O-])=C(C[n+]3ccccc3)CS[C@H]12)c1csc(N)n1)C(=O)O [CEFTAZIDIME] | 0.5 (≈ 0.915 µM) | ≤ 0.12 | 4 (≈ 7.32 µM) | 8 (≈ 14.6 µM) | 64 (≈ 117 µM) | 4 (≈ 7.32 µM) | 8 (≈ 14.6 µM) | 8 (≈ 14.6 µM) | 256 (≈ 468 µM) | 64 (≈ 117 µM) | 256 (≈ 468 µM) | 256 (≈ 468 µM) | 256 (≈ 468 µM) | > 256 | > 256 | 2 (≈ 3.66 µM) | 8 (≈ 14.6 µM) | – | 8 (≈ 14.6 µM) | 256 (≈ 468 µM) | MIC [1]: 4 µg/mL (≈ 7.32 µM); MIC [2]: 8 µg/mL (≈ 14.6 µM); MIC [6]: 64 µg/mL (≈ 117 µM); MIC [15]: 128 µg/mL (≈ 234 µM); MIC [24]: 64 µg/mL (≈ 117 µM); MIC [25]: 256 µg/mL (≈ 468 µM); MIC [27]: 4 µg/mL (≈ 7.32 µM); MIC [28]: 8 µg/mL (≈ 14.6 µM); MIC [30]: 64 µg/mL (≈ 117 µM); MIC [31]: 32 µg/mL (≈ 58.5 µM); MIC [32]: 4 µg/mL (≈ 7.32 µM)
4 | GENTAMICIN | < 0.12 | < 0.12 | 32 | 16 | 32 | > 32 | 32 | > 32 | 32 | > 32 | > 32 | > 32 | > 32 | > 32 | > 64 | 2 | > 32 | 16 | > 32 | 16 | MIC [2]: 1 µg/mL; MIC [3]: < 0.25 µg/mL; MIC [6]: 2 µg/mL; MIC [15]: > 32 µg/mL; MIC [24]: 32 µg/mL; MIC [25]: 2 µg/mL; MIC [27]: 4 µg/mL; MIC [28]: 16 µg/mL; MIC [30]: 1 µg/mL
5 | C[C@H]1[C@H](NC(=O)/C(=N\OC(C)(C)C(=O)O)c2csc(N)n2)C(=O)N1S(=O)(=O)O [AZTREONAM] | 0.5 (≈ 1.15 µM) | ≤ 0.12 | 2 (≈ 4.59 µM) | 1 (≈ 2.3 µM) | 0.5 (≈ 1.15 µM) | 0.5 (≈ 1.15 µM) | – | 4 (≈ 9.19 µM) | 32 (≈ 73.5 µM) | 32 (≈ 73.5 µM) | > 64 | > 64 | > 64 | > 64 | > 64 | 0.5 (≈ 1.15 µM) | 2 (≈ 4.59 µM) | 0.5 (≈ 1.15 µM) | 64 (≈ 147 µM) | > 64 | MIC [1]: 32 µg/mL (≈ 73.5 µM); MIC [24]: 16 µg/mL (≈ 36.7 µM); MIC [25]: 4 µg/mL (≈ 9.19 µM); MIC [28]: 16 µg/mL (≈ 36.7 µM); MIC [30]: > 64 µg/mL; MIC [31]: 32 µg/mL (≈ 73.5 µM); MIC [32]: 16 µg/mL (≈ 36.7 µM)
